Reference: the supplement of paper PMC5908809

Legend:
[1] = system: normal NK cells expanded with K562-aAPC; experiment: percent inhibition of viability; higher = more inhibition; details: 72 h, IL-2 2.5 ng/mL
Procedure: (§1)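 Drug sensitivity and resistance testing on K562-aAPC-expanded normal NK cells: 5 concentrations (10-fold steps over a 10,000-fold range), 72 h at 37 °C, viability by CellTiter-Glo normalised to DMSO and benzethonium chloride controls; DSS from the fitted curve.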

[2] = system: DERL-7 (IL-2 2.5 ng/mL); experiment: as above; details: 72 h
[3] = system: IMC-1 (IL-2 20 ng/mL); experiment: as above; details: 72 h
[4] = system: KAI3 (IL-2 2.5 ng/mL); experiment: as above; details: 72 h
[5] = system: KHYG-1 (IL-2 2.5 ng/mL); experiment: as above; details: 72 h
[6] = system: NK-92 (IL-2 2.5 ng/mL); experiment: as above; details: 72 h
[7] = system: NK-YS (IL-2 2.5 ng/mL); experiment: as above; details: 72 h
[8] = system: NKL (IL-2 2.5 ng/mL); experiment: as above; details: 72 h
[9] = system: SNK-6 (IL-2 2.5 ng/mL); experiment: as above; details: 72 h
[10] = system: YT (IL-2 2.5 ng/mL); experiment: as above; details: 72 h
[11] = system: normal primary NK cells, pool 1 (3 donors) (IL-2 2.5 ng/mL); experiment: as above; details: 72 h
[12] = system: normal primary NK cells, pool 1 (3 donors), resting (IL-2 0 ng/mL); experiment: as above; details: 72 h
[13] = system: normal primary NK cells, pool 2 (3 donors) (IL-2 2.5 ng/mL); experiment: as above; details: 72 h
[14] = system: normal primary NK cells, pool 3 (3 donors) (IL-2 2.5 ng/mL); experiment: as above; details: 72 h
[15] = system: normal NK cells expanded with K562-aAPC; experiment: drug sensitivity score (DSS) (DSS units); higher = more sensitive; extreme values may be limits of the assay; details: 72 h; IL-2 2.5 ng/mL
Procedure: as §1

[16] = system: DERL-7 (IL-2 2.5 ng/mL); experiment: as above; details: 72 h
[17] = system: IMC-1 (IL-2 20 ng/mL); experiment: as above; details: 72 h
[18] = system: KAI3 (IL-2 2.5 ng/mL); experiment: as above; details: 72 h
[19] = system: KHYG-1 (IL-2 2.5 ng/mL); experiment: as above; details: 72 h
[20] = system: NK-92 (IL-2 2.5 ng/mL); experiment: as above; details: 72 h
[21] = system: NK-YS (IL-2 2.5 ng/mL); experiment: as above; details: 72 h
[22] = system: NKL (IL-2 2.5 ng/mL); experiment: as above; details: 72 h
[23] = system: SNK-6 (IL-2 2.5 ng/mL); experiment: as above; details: 72 h
[24] = system: YT (IL-2 2.5 ng/mL); experiment: as above; details: 72 h
[25] = system: normal primary NK cells, pool 1 (3 donors) (IL-2 2.5 ng/mL); experiment: as above; details: 72 h
[26] = system: normal primary NK cells, pool 1 (3 donors), resting (IL-2 0 ng/mL); experiment: as above; details: 72 h
[27] = system: normal primary NK cells, pool 2 (3 donors) (IL-2 2.5 ng/mL); experiment: as above; details: 72 h
[28] = system: normal primary NK cells, pool 3 (3 donors) (IL-2 2.5 ng/mL); experiment: as above; details: 72 h

COc1cc(N2CCN(C)CC2)ccc1Nc1nccc(-c2cn(C)c3cnccc23)n1 [AZ191] (max concentration tested 10000 nM)
percent inhibition of viability [%]
Details	1 nM	10 nM	100 nM	1000 nM	10000 nM
[1]	-2.34	0.52	-4.12	6.6	100
[2]	7.49	2.85	4.6	22.2	100
[3]	-5.47	3.31	-0.27	2.63	101
[4]	-2.82	-0.25	1.51	7.76	96.3
[5]	0.79	2.96	3.04	14.1	84
[6]	2.97	2.04	-3.34	-19.2	93.8
[7]	-4.12	2.61	2.04	8.64	101
[8]	0.2	-6.29	1.16	9.93	100
[9]	-18.5	-11.7	-15.3	-7.38	92
[10]	2.03	4.34	2.77	1.55	41.9
[11]	7.5	-5.03	-5.7	-4.75	96.8
[12]	1.62	-14.6	-3.74	-36.1	89
[13]	-12.1	-5.94	-2.76	-11.2	95.5
[14]	-10.6	-7.12	4.76	-17.3	97.8

Details	drug sensitivity score
[15]	6.54
[16]	9.03
[17]	6.03
[18]	6.56
[19]	7.01
[20]	4.21
[21]	6.95
[22]	7.17
[23]	4.58
[24]	2.31
[25]	5.01
[26]	3.59
[27]	4.59
[28]	4.48

Cc1nc(Nc2n[nH]c3c2CN(C(=O)N[C@H](CN(C)C)c2ccccc2)C3(C)C)c2sccc2n1 (max concentration tested 10000 nM)
percent inhibition of viability [%]
Details	1 nM	10 nM	100 nM	1000 nM	10000 nM
[1]	4.54	6.07	22.4	41.8	101
[2]	5.19	43.4	60.3	59.5	100
[3]	-7.89	94	100	100	101
[4]	9.34	25.2	38.2	52.7	103
[5]	3.44	16.8	81.4	96.4	106
[6]	2.81	5.29	27.2	59.5	105
[7]	0.35	42.8	54.1	57.7	101
[8]	-10.4	9.99	31.3	50.3	103
[9]	-2.61	16.3	16	31.2	87.1
[10]	0.99	13.6	41.7	56	104
[11]	5.07	3.65	18.4	34.4	98.8
[12]	5.47	-19.5	8.53	35.1	92.2
[13]	-7.71	9.61	27.4	49.4	98.1
[14]	-6.36	3.67	21.6	29.7	98.9

Details	drug sensitivity score
[15]	11.5
[16]	24.7
[17]	41.6
[18]	18.1
[19]	29.5
[20]	15.2
[21]	23
[22]	14.4
[23]	8.41
[24]	17.5
[25]	9.34
[26]	9.24
[27]	13.5
[28]	8.84

Cc1nc(Nc2ncc(C(=O)Nc3c(C)cccc3Cl)s2)cc(N2CCN(CCO)CC2)n1 [Dasatinib] (max concentration tested 1000 nM)
percent inhibition of viability [%]
Details	0.1 nM	1 nM	10 nM	100 nM	1000 nM
[1]	-0.95	4.04	19.2	3.69	18.7
[2]	2.24	8.32	14.1	5.36	23.2
[3]	-4.24	-3.41	-7.41	-6.36	8.01
[4]	-0.36	1.21	4.62	14.5	34
[5]	-4.78	-5.41	2.42	4.68	15
[6]	-15.2	-20	-16.4	-1	22.6
[7]	-0.77	-3.69	1.85	9.09	26.2
[8]	-6.62	-1.79	12	30.8	50.2
[9]	26.1	-6.71	-10.2	3.42	33.2
[10]	-6.9	-3.71	0.56	23	39.6
[11]	-0.11	19.3	13.1	15.4	19.5
[12]	-8.65	23.5	15.4	12.1	3.61
[13]	-3.84	18.3	1.6	0.44	6.62
[14]	0.39	14.8	-5.88	-19.1	-19.4

Details	drug sensitivity score
[15]	1.3
[16]	1.68
[17]	0
[18]	2.92
[19]	0.45
[20]	0.7
[21]	2.02
[22]	6.85
[23]	2.07
[24]	4.71
[25]	6.61
[26]	0
[27]	0
[28]	0

CCC1=C[C@@H]2CN(C1)Cc1c([nH]c3ccccc13)[C@@](C(=O)OC)(c1cc3c(cc1OC)N(C)[C@H]1[C@@](O)(C(=O)OC)[C@H](OC(C)=O)[C@]4(CC)C=CCN5CC[C@]31[C@@H]54)C2 [Vinorelbine] (max concentration tested 10000 nM)
percent inhibition of viability [%]
Details	1 nM	10 nM	100 nM	1000 nM	10000 nM
[1]	1.8	11.8	57.4	59.7	79
[2]	-3.93	85.2	98.5	98.5	100
[3]	-0.83	99.3	99.7	100	101
[4]	-0.08	44.9	58.9	70.4	70.2
[5]	2.76	57.8	97.2	103	105
[6]	-12.5	23.4	88.8	98.5	102
[7]	10.7	66.4	64.9	84.2	90
[8]	3.63	84.8	93.6	93.9	93.2
[9]	22.5	78.3	84.4	96.7	96.5
[10]	0.44	65.8	95.2	98.7	100
[11]	-4.33	-2.37	-0.15	4.78	40.3
[12]	-1.44	-3.84	-0.59	21.5	76.9
[13]	-13.5	0.55	18.7	12.3	39.7
[14]	-16.2	-7.94	14.5	19.8	32.1

Details	drug sensitivity score
[15]	20.7
[16]	40.4
[17]	42.8
[18]	27.1
[19]	37.3
[20]	31.6
[21]	33.5
[22]	39.5
[23]	40.6
[24]	38.2
[25]	2.8
[26]	7.49
[27]	3.94
[28]	4.42

COc1ccc(-c2nc(N3CCOCC3)c3sc(CN(C)c4ncc(C(=O)NO)cn4)cc3n2)cn1 [CUDC-907] (max concentration tested 10000 nM)
percent inhibition of viability [%]
Details	1 nM	10 nM	100 nM	1000 nM	10000 nM
[1]	10.6	55.4	100	99.9	99.9
[2]	23.5	99.7	100	100	99.7
[3]	-4.89	34.3	100	101	100
[4]	52.6	75.5	102	104	98.9
[5]	16.1	94.5	103	103	98.7
[6]	23.2	83.5	102	103	97
[7]	6.56	55.9	101	103	99
[8]	56.5	77	103	104	99.2
[9]	0.83	63.5	99.8	100	100
[10]	5.94	27.4	103	104	99.1
[11]	2.74	68.2	96.4	97.7	97.2
[12]	15.9	72.7	90.1	91	91.7
[13]	1.42	74.2	94.2	94	94.8
[14]	-5.77	56.8	97.2	96.7	98.1

Details	drug sensitivity score
[15]	37.1
[16]	46.5
[17]	35.3
[18]	43.4
[19]	44.4
[20]	42.9
[21]	37.1
[22]	43.8
[23]	37.9
[24]	34.6
[25]	38
[26]	38.4
[27]	37.7
[28]	36.7
